Test results published in patent EP0091796A1, “Process for removing 1-sulfonyl groups from benzimidazoles” (ELI LILLY AND COMPANY, priority 1982, dated 1983).

Assay: pKa determination in 66% DMF/H2O
Conditions: for pKa: 66% dmf/h2o; for pK: solvent not given

| Structure (SMILES) | pKa (single or first (lower) pKa) | further results |
| --- | --- | --- |
| CON=C(c1ccccc1)c1ccc2nc(N)[nH]c2c1 [Example 1, 2-amino-5(6)-methoximephenylbenzimidazole] | 8.88 | – |
| CC=C(c1ccccc1)c1ccc2nc(N)[nH]c2c1 [Example 2, 2-amino-5(6)-(ethylidenebenz^yl)benzimidazole] | 6.98 | – |
| C/C=C(\c1ccccc1)c1ccc2nc(N)[nH]c2c1 [Example 3, trans-2-amino-5(6)-(ethylidenebenzyl)benzimidazole] | 7.05 | – |
| C=C(c1ccccc1)c1ccc2nc(N)[nH]c2c1 [Example 6, 2-amino-5(6)-(methylidenebenzyl)benzimidazole] | 6.8 | – |
| Nc1nc2cc(C(=O)c3ccccc3)ccc2[nH]1 [Example 7, 2-amino-5(6)-benzoylbenzimidazole] | – | pK (first (lower) printed value): 5.65; pK (second (higher) printed value): 13.0 |
| Nc1nc2ccc(C(=O)c3ccccc3)cc2[nH]1 [Example 8, 2-amino-5(6)-benzoylbenzimidazole] | 5.7 | pKa (second (higher) printed pKa): 13.2 |
